“Also recorded” adds a separate entry of the source. Non-standard residues stand in square brackets, D forms with d. Residues, ends and D or L forms follow the SMILES beside them. Aib = CC(C)(N)C(=O)O
Columns and labels:
[1] = target: amyloid beta Aβ1-42 (Homo sapiens, UniProt P05067); conditions: read-out: binding affinity to amyloid beta Aβ1-42; cited from earlier work
[2] = target: T1, Aβ1-42 monomers (Homo sapiens, UniProt P05067); test: Surface Plasmon Resonance (SPR) binding of compound (1) to immobilized Aβ1-42 monomers (Biacore X100)
T1 construct: purchased American Peptide Company, Sunnyvale, CA, USA; host or cells: synthetic peptide
T1 sequence (P05067 672-713 limits assumed): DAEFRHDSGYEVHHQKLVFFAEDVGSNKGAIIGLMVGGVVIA
Method: FIG. 1 Represents a graphical illustration of compound (1)'s target affinity to amyloid beta Aβ1-42 monomers using Surface Plasmon Resonance (SPR). Synthetic Aβ1-42 was used for this binding assay performed with a Biacore X100 biosensor instrument equipped with two flow cells. Aβ1-42 was covalently coupled to one flow cell of CM7 sensor chips using an amine coupling kit. HBS-EP was used as assay running buffer. The analyte compound (1) was injected over the sensor chip in concentrations ranging from 0.3 nM up to 1000 nM at a flow rate of 10 μL/min for 180 sec at 25° C. […]
The aim of this experiment was to evaluate the target affinity of compound (1) to misfolded Aβ1-42 monomers. The affinity was determined using in vitro Surface Plasmon Resonance (SPR) technology. […]
The resonance units (RUs) elicited by the compound injected into the ethanolamine control flow cell was set as reference response and subtracted from the RUs elicited by the same compound injected to the Aβ saturated flow cell. […] The dissociation equilibrium constant KD of the analyte to the immobilized Aβ was determined from the steady-state levels estimating the maximum RU Rmax and calculating the KD as the concentration of the compound that elicited one-half of the Rmax.

[3] = Pharmacokinetics in the rat brain: microdialysis of brain interstitial fluid (prefrontal cortex), HPLC-MS/MS; assay type: in vivo
Method: FIG. 2 Represents a graphical illustration of compound (1)'s pharmacokinetics in the rat brain. Compound (1) was administered as subcutaneous (s.c.) injection at doses of 0.4 mg/kg (∇) and […] (O, Δ). A microdialysis probe has been placed in the prefrontal cortex of these adult male Sprague Dawley rats to measure the concentration of compound (1) in the brain interstitial fluid (ISF) using a HPLC system with MS/MS detector. The dialysate samples were collected at a flow rate of 0.10 μL/min with a carrier flow rate of 0.8 μL/min. The animals were either anesthetized or awake and freely moving. Microdialysis data over a period of 360 min are depicted on a linear scale as means of 4 measurements±SEM.
The aim of this experiment was to evaluate the pharmacokinetics of compound (1) in the rat brain. Compound (1) was administered subcutaneously to anesthetized or awake and freely moving animals. A microdialysis probe has been placed in the prefrontal cortex of these adult male Sprague Dawley rats to measure the concentration of compound (1) in the brain interstitial fluid (ISF) using a HPLC system with MS/MS detector.

[4] = target: T2, oligomeric Aβ1-42 (Homo sapiens, UniProt P05067); test: In vivo LTP in anesthetized rats after i.c.v. oligomeric Aβ1-42; parameters: species or system rat; conditions: for PS amplitude 80-90 min after LTP induction: Aβ1-42 alone 138.1±4.1, vehicle 179.2±8.7
T2 construct: Amyloid beta Aβ1-42 has been injected into brain ventricles at a concentration that strongly suppresses LTP; host or cells: peptide solution injected into anesthetized rats
T2 sequence (P05067 672-713 limits assumed): as above
Method: FIG. 3 Represents a graphical illustration of compound (1)'s dose-dependent effects on in vivo LTP in anesthetized rats at very low concentrations. Given are normalized LTP of population spike (PS) amplitude at 80-90 min post theta burst stimulation (TBS). Compound (1) has been administered s.c. at dose of 0.08 mg/kg, 0.4 mg/kg, and 2.0 mg/kg. Amyloid beta Aβ1-42 has been injected into brain ventricles at a concentration that strongly suppresses LTP (black column). […] The aim of this experiment was to evaluate the dose-dependent effects of compound (1) on in vivo LTP in anesthetized rats at very low concentrations. Compound (1) has been administered s.c. at dose of 0.08 mg/kg, 0.4 mg/kg, and 2.0 mg/kg. Amyloid beta Aβ1-42 has been injected into brain ventricles at a concentration that strongly suppresses LTP. […] In animals subject to intracerebroventricular (i.c.v.) injection of 6 μL oligomeric Aβ1-42 solution (1.67 mM) significant deficits in LTP were observed. (FIG. 3). At the end of the recording period, 80-90 min after LTP induction, the PS amplitude following i.c.v. administration of oligomeric Aβ1-42 measured 138.1±4.1% of baseline (n=18), compared to 179.2±8.7% in PBS-injected animals (n=12). In animals subjected to i.c.v injection of 6 μL oligomeric Aβ1-42, 3 different s.c. doses of compound (1), namely 0.08, 0.4 and 2 mg/kg, were administrated before i.c.v. injection of oligomeric Aβ1-42. […] At the end of the recording period, 80-90 min after LTP induction, the PS amplitude following s.c. administration of compound (1) and i.c.v. administration of oligomeric Aβ1-42 measured 170.0±11.9% of baseline (n=7) for the 2 mg/kg dose, 174.7±16.0% of baseline (n=6) for the 0.4 mg/kg dose, and 139.6±13.1% of baseline (n=4) for the 0.08 mg/kg dose, compared to 179.2±8.7% in vehicle-treated controls (n=12) and 138.1±4.1% i.c.v. oligomeric Aβ1-42-injected animals (n=18).

[5] = target: T3, Aβ1-42 oligomers (Homo sapiens, UniProt P05067); test: In vitro LTP in hippocampal brain slices superfused with 50 nM Aβ1-42; parameters: species or system mice; conditions: for effect on Aβ1-42 toxicity in in vitro LTP: 50 nM Aβ1-42; for Relative effect size (blocking Aβ1-42 toxicity): control LTP = 100%, Aβ1-42 alone = 0%
T3 construct: host or cells: peptide added to the superfusion solution of hippocampal slices
T3 sequence (P05067 672-713 limits assumed): as above
Method: FIGS. 4A-B. FIG. 4A Illustrates plots from in vitro LTP experiments using rat brain slices that were superfused at 23° C. with 50 nM Aβ1-42 and/or with 10 nM compound (1). The compound (1) solution was added for 90 min before HFS was delivered in the first input (dark grey circles). […] To ensure the validity of the Aβ1-42-mediated effect, interleaved experiments with Aβ1-42 (50 nM, closed circles, n=12) were additionally performed in separate slices. […] Representative field excitatory postsynaptic potentials ([…]) are shown on top. FIG. 4B Represents a graphical illustration of compound (1)'s dose-dependent effects on in vitro LTP in rat brain slices based on LTP experiments shown in FIG. 4A. Toxic Aβ1-42 oligomers formed from 50 nM amyloid beta Aβ1-42 monomers block the LTP response almost entirely (black column). […] This refutes the previous scientific status, which called for an excess of the detoxifying agent. Data are shown as means of 5 experiments (n=5)±standard deviations. For the long-term potentiation (LTP) experiments brain slices from 2 months old mice were used. Transverse hippocampal slices (350 μm thick) were obtained after decapitation under isoflurane-anesthesia. All slices were placed in a holding chamber for at least 60 min and were then transferred to a super fusing chamber for extracellular recordings. The flow rate of the solution through the chamber was 4 ml/min. […] All experiments were performed at room temperature. Aβ1-42 stock solution in DMSO was added to the bath solution to give a final concentration of 50 nM. Extracellular recordings of field excitatory postsynaptic potentials (fEPSPs) were obtained from the dendritic region of the CA1 region of the hippocampus using glass micropipettes filled with superfusion solution. For all recordings both stimulating electrodes were used to utilize the input specificity of LTP and thereby allow the measurement of an internal control within the same slice. Steady baseline recordings were made for at least 30 minutes before application of tetanic stimuli. For LTP induction, high-frequency stimulation (HFS) conditioning pulses (100 Hz/1 s; 4-5 V) were applied to the Schaffer collateral commissural pathway via two independent inputs. Before inducing LTP, Aβ1-42 has been applied for 90 min. HFS was delivered from one of the electrodes under conditions in the presence of Compound (1) and potentiation of the responses was monitored for at least 60 min after the tetanus. Either Aβ1-42 was then applied via the bath solution for 90 min before attempting to induce LTP in the second input following HFS delivered via the second electrode. Amplified fEPSPs were filtered (3 kHz), digitized (15 kHz), measured and plotted (FIG. 4A). Measurements of the slope of the fEPSP were taken between 20% and 80% of the peak amplitude. Slopes of fEPSPs were normalized with respect to the 20 min control period before tetanic stimulation. Compound (1) was used at various concentrations in these LTP experiments. […] FIG. 4B summarizes the effects of different compound (1) concentrations leading to different stoichiometric Aβ1-42/compound (1) ratios (10:1, 2:1, 1:5). The LTP signals (fEPSP potentiation) calculated as the average of the last 50-60 mins after HFS are presented as a bar diagram. […] The control experiment is defined as 100% normalized LTP response and the toxic effect of 50 nM Aβ1-42 oligomers is defined as 0% normalized LTP change. Using the usual stoichiometric excess for compound (1), namely 500 nM or 100 nM, leads to a weak detoxifying effect of 40.2% and 34.7%, respectively.

Sequence of amyloid beta Aβ1-42 (P05067 672-713 limits assumed): as above

Compound: CC(C)(NC(=O)C(N)Cc1c[nH]c2ccccc12)C(=O)O (stereo not shown) [GAL-101, 2-[2-Amino-3-(1H-indol-3-yl)-propionylamino]-2-methyl-propionic acid]
- Kd [1]: 28.9 ± 2.9 nM

Compound: CC(C)(NC(=O)[C@H](N)Cc1c[nH]c2ccccc12)C(N)=O [compound (1), (2R)-2-amino-N-(1-carbamomyl-1-methlyethyl)-3-(1H-indol-3-yl) propanamide] (H-[dW]-[Aib]-NH2)
- Kd ([2]; SPR steady state, 25° C, HBS-EP, 0.3-1000 nM, n=4, read-out: KD (dissociation constant) at Aβ1-42 monomers): 2.5 ± 0.6 nM
- affinity to the target compared to GAL-101 (fold stronger) ([2]; compound (1) vs GAL-101): 4 fold
- peak brain concentration (extracellular space of the brain) ([3]; s.c. 0.4 mg/kg): 10 nM
- brain concentration (brain ISF) ([3]; s.c. 2 mg/kg): ca. 60 nM
- effect on Aβ1-42-suppressed in vivo LTP ([4]; 0.08 mg/kg s.c.): loss of the pharmacological effect
- PS amplitude 80-90 min after LTP induction ([4]; 0.08 mg/kg s.c. + i.c.v. oligomeric Aβ1-42, n=4): 139.6±13.1 % of baseline
- effect on Aβ1-42-suppressed in vivo LTP ([4]; 0.4 mg/kg s.c.): at least as potent efficacy on LTP; also recorded: fully restored LTP signal; also recorded: brought post-TBS responses towards those observed in control animals
- PS amplitude 80-90 min after LTP induction ([4]; 0.4 mg/kg s.c. + i.c.v. oligomeric Aβ1-42, n=6): 174.7±16.0 % of baseline
- effect on Aβ1-42-suppressed in vivo LTP ([4]; 2 mg/kg s.c.): brought post-TBS responses towards those observed in control animals; also recorded: normalizes the LTP signal
- PS amplitude 80-90 min after LTP induction ([4]; 2 mg/kg s.c. + i.c.v. oligomeric Aβ1-42, n=7): 170.0±11.9 % of baseline
- effect on Aβ1-42 toxicity in in vitro LTP ([5]; 10 nM compound (1)): best prevented the detrimental effect of 50 nM Aβ1-42 on hippocampal LTP; also recorded: able to prevent LTP blockade; also recorded: blocks Aβ1-42 toxicity almost completely
- Relative effect size (blocking Aβ1-42 toxicity) ([5]; 10 nM compound (1), 50 nM Aβ1-42, ratio 1:5): 88.1%
- LTP induction in presence of compound alone ([5]; 10 nM compound (1), 90 min before HFS, no Aβ1-42): allowed the induction of LTP
- effect on Aβ1-42 toxicity in in vitro LTP ([5]; 100 nM compound (1)): only partially alleviate the toxic effect of Aβ1-42
- Relative effect size (blocking Aβ1-42 toxicity) ([5]; 100 nM compound (1), 50 nM Aβ1-42, ratio 2:1): 34.7%
- Relative effect size (blocking Aβ1-42 toxicity) ([5]; 100 nM compound (1), 50 nM Aβ1-42, ratio 2:1, listed as Compound (1)): 34.7%
- effect on Aβ1-42 toxicity in in vitro LTP ([5]; 500 nM compound (1)): only partially alleviate the toxic effect of Aβ1-42
- Relative effect size (blocking Aβ1-42 toxicity) ([5]; 500 nM compound (1), 50 nM Aβ1-42, ratio 10:1): 40.2%
- Relative effect size (blocking Aβ1-42 toxicity) ([5]; 500 nM compound (1), 50 nM Aβ1-42, ratio 10:1, listed as Compound (1)): 40.2%
- detoxifying effect in undersupply compared to stoichiometric excess ([5]; 10-fold undersupply (ratio 1:10) as worded, refers to Table 1): more than double as strong
- molecules of Aβ1-42 detoxified by 1 molecule of compound (1) ([5]; efficacy at 10 nM vs 50 nM Aβ1-42): 5
